Experiment [1] has as its system SGC-7901. Put plainly: In vitro cytotoxic activity against SGC-7901 stomach cancer solid tumor cell line by MTT assay (microculture terazolium colorimetric). It is filed as functional, cell-based. The conditions noted are these: Homo sapiens. On the technique in general: Formazan colour is commonly taken as a measure of viable cells.
In experiment [2] the test system is P388. The experiment can be described thus: In vitro cytotoxic activity against P388 mouse leukemia cell line by MTT assay (microculture terazolium colorimetric). It counts as functional, cell-based.
The subject of experiment [3] is SPC-A4. Put plainly: In vitro cytotoxic activity against SPC-A4 lung cancer solid tumor cell line by MTT assay (microculture terazolium colorimetric). It is filed as functional, cell-based. The conditions noted are these: Homo sapiens.
In experiment [4] the test system is HL-60. The experiment can be described thus: In vitro cytotoxic activity against HL-60 human leukemia cell line by MTT assay (microculture terazolium colorimetric). It is filed as functional, cell-based.
Experiment [5] has as its system Mus musculus. The experiment can be described thus: (§1) Ratio of the tumor weight of mice at the initial stage and the final stage of the experiment was reported at a dose of 3.0 mg/kg (day 7). It counts as functional.
Experiment [6] concerns Mus musculus. The experiment can be described thus: In vivo inhibitory activity against murine lewis lung cancer at a dose of 5.0 mg/kg i.p. (day10). It is filed as functional. The conditions noted are these: route intraperitoneal.
The subject of experiment [7] is Mus musculus. Described as §1. It counts as functional. This is another data set of the same source.
Experiment [8] deals with Mus musculus. The experiment can be described thus: In vivo inhibitory activity against murine S-180 sarcoma at a dose of 3.0 mg/kg (day 7). It counts as functional.
For experiment [9], the system named is Mus musculus. The experiment can be described thus: Ratio of the tumor weight of mice at the initial stage and the final stage of the experiment was reported at a dose of 5.0 mg/kg i.p. (day10). It is filed as functional. To be noted: route intraperitoneal.
Experiment [10] concerns Mus musculus. Put plainly: Ratio of the tumor weight of mice at the initial stage and the final stage of the experiment was reported at a dose of 0.2 ml/mouse (Q2dx10) administered i.p. It counts as functional.
Experiment [11] concerns Mus musculus. Put plainly: Ratio of the tumor weight of mice at the initial stage and the final stage of the experiment was reported at a dose of 0.2 ml/mouse (Q2dx9) administered i.p. It is filed as functional.
Experiment [12] concerns Mus musculus. The experiment can be described thus: In vivo inhibitory activity against human lung adenocarcinoma xenograft A-549 in mice at a dose of 2.0 mg/kg (Q2dx10) administered i.p. It is filed as functional. To be noted: route intraperitoneal. In general terms: A xenograft is tissue or cells of one species grown in another, often human tumour cells in immunodeficient mice.

The subject of experiment [13] is Mus musculus. The experiment can be described thus: In vivo inhibitory activity against human lung adenocarcinoma xenograft A-549 in mice at a dose of 2.0 mg/kg (Q2dx9) administered i.p. It is filed as functional. The conditions noted are these: A549, ip, route intraperitoneal.
Experiment [14] relates to Mus musculus. Put plainly: Ratio of the tumor weight of mice at the initial stage and the final stage of the experiment was reported at a dose of 0.2 ml/mouse (Q2dx10) administered i.p.; 10/10. It is filed as functional.
The test system of experiment [15] is Mus musculus. The experiment can be described thus: In vivo inhibitory activity against human lung adenocarcinoma xenograft LAX-83 in mice at a dose of 2.0 mg/kg (Q2dx10) administered i.p. It is filed as functional. To be noted: route intraperitoneal.

These results are taken from ChEMBL document CHEMBL1131984, “Synthesis and antitumour activity of novel diterpenequinone salvicine and the analogs” (Bioorg Med Chem Lett, 1999).

“And” between values parts separate entries of the source, which are not always exact repeats. Identical values can stand only once.

Usually IC50 stands for the midpoint of a concentration-inhibition curve. As to `C=C(C)[C@H](CCc1c(C)ccc2c1C(=O)C(=O)C(C(C)C)=C2)OO`, the concentration for half-maximal inhibition (IC50) came to 2.22 µM in experiment [1], 3.7 µM in experiment [2], 2.9 µM in experiment [3] and 3.7 µM in experiment [4].

In the case of `Cc1ccc2cc(C(C)C)c(=O)oc(=O)c2c1CCC(=O)C(C)C`, the IC50 in experiment [1] is 89.6 µM; in experiment [2], 1.47 µM; in [3], 2.76 µM; in [4], 1.43 µM.

For `Cc1ccc2c(c1CCC=O)C(=O)C(=O)C(C(C)C)=C2`, the IC50 came to 52.4 µM in experiment [1], 1.78 µM in experiment [2], 2.68 µM in experiment [3] and 2.39 µM in [4].

As to `CC(=O)OC(CCc1c(C)ccc2c1C(=O)C(=O)C(C(C)C)=C2)C(C)(C)O` (stereo not drawn), the concentration for half-maximal inhibition (IC50) worked out at 3.39 µM in [2], 2.61 µM in [3] and 5.04 µM in experiment [4].

In general, inhibition in vivo refers to the share of the control response that was lost under treatment. Broadly, the Inhibition is the percentage by which the read-out fell short of the control. The low end stands for little suppression, the high end for strong suppression. `COc1cc([C@@H]2c3cc4c(cc3[C@@H](O[C@@H]3O[C@@H]5CO[C@@H](C)O[C@H]5[C@H](O)[C@H]3O)[C@H]3COC(=O)[C@H]23)OCO4)cc(OC)c1O` [ETOPOSIDE]: the Tumor weight in experiment [5] was 0.99 g; in experiment [7] it was 1.09 g and 1.06 g; in [9], 0.73 g and 1.03 g. The compound further registered an inhibition in vivo at 5 mg/kg in [6] (Mus musculus, Lung, ip, 240 h) of 50.3%. For the same compound, the Inhibition in experiment [6] (5 mg/kg) is 48.5%; in experiment [8], 40% and 39.4% and 61.3%.

On to `CO[C@@]12[C@H](COC(N)=O)C3=C(C(=O)C(C)=C(N)C3=O)N1C[C@@H]1N[C@@H]12` [MITOMYCIN], for which the Tumor weight in experiment [10] was 1.62 g and 1.71 g and 1.91 g and 1.15 g; in [11] it was 3.43 g; in experiment [14] it was 2.64 g. Further, the inhibition in vivo at 2 mg/kg in experiment [12] (Mus musculus, A549, ip) worked out at 67.9%; in [13] it was 79.2%. In addition, the Inhibition was 52.69% in [12] (2 mg/kg); 63.49% and 70.1% and 87.54% in experiment [15].
